From publication PMC6556873, “Rapid Covalent-Probe Discovery by Electrophile-Fragment Screening” (Journal of the American Chemical Society, 2019)
Where two headings read alike, the source gives them in different places.

Assays:
in vitro [1] = assay: in vitro; parameters: species or system HB2, CCD841; details: human, hek293 cells
BSA = molecular target: T1, BSA (Bos taurus, UniProt P02769); parameters: Intact protein LC/MS covalent labelling, fragments in pools of five, 200 uM each, 4 °C; details: 24 h, 4 °C, pool of five; 200 µM; covalent
T1 construct: gene ALB

OTUB2 (OTUB2A) = molecular target: T2, OTUB2 (OTUB2A) (Homo sapiens, UniProt Q96DC9); parameters: Intact protein LC/MS covalent labelling, fragments in pools of five, 200 uM each, 4 °C; details: 24 h, 4 °C, pool of five; 200 µM; covalent
T2 construct: full length residues 1-234, E. coli BL21(DE3)-R3, His tag removed by TEV, construct 27312 Da
T2 sequence (Q96DC9 1-234): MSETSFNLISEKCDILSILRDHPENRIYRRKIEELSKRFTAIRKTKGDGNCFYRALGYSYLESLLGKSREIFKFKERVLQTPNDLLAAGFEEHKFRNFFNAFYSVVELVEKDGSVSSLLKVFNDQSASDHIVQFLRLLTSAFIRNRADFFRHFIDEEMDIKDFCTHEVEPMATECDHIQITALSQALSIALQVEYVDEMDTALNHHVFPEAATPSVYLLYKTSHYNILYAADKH

PCAF = molecular target: T3, PCAF (Homo sapiens, UniProt Q92831); parameters: Intact protein LC/MS covalent labelling, fragments in pools of five, 200 uM each, 4 °C; details: 24 h, 4 °C, pool of five; 200 µM; covalent
T3 construct: gene KAT2B

NUDT7 = molecular target: T4, NUDT7 (Homo sapiens, UniProt P0C024); parameters: Intact protein LC/MS covalent labelling, fragments in pools of five, 200 uM each, 4 °C; details: 24 h, 4 °C, pool of five; 200 µM; covalent
T4 construct: residues 14-235, E. coli, pNIC28-Bsa4, N-terminal His6 tag removed by TEV, construct 26672 Da

in vitro [2] = assay: in vitro; parameters: species or system CCD841, HEK293; details: human, hb2 cells, read-out: HB-2 Cells Viability (%)
in vitro [3] = assay: in vitro; parameters: species or system HB2, HEK293; details: human, ccd841 cells

T3 sequence (Q92831 whole entry, the tested form may be a part): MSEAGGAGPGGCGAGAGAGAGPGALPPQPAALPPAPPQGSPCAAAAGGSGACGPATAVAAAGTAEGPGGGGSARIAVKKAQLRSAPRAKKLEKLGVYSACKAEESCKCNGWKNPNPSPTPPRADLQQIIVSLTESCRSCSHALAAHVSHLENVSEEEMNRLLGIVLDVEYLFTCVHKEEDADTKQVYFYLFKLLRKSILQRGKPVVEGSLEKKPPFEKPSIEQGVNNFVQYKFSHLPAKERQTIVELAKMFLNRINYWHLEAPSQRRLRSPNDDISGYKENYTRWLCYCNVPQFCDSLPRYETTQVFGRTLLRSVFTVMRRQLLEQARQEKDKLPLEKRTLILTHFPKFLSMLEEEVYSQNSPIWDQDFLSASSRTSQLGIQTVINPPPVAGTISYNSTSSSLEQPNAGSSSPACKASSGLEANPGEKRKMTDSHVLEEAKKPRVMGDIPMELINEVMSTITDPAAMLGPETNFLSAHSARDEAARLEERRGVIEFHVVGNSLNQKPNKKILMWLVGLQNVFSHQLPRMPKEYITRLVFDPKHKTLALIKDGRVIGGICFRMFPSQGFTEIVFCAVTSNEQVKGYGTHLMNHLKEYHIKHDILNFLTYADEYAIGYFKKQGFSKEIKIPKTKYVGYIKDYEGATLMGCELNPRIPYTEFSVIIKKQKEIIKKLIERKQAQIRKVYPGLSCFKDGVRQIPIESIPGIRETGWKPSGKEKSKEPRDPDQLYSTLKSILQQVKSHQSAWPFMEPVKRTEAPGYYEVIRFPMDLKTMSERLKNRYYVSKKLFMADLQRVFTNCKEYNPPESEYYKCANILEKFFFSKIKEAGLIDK
T1 sequence (P02769 whole entry, the tested form may be a part): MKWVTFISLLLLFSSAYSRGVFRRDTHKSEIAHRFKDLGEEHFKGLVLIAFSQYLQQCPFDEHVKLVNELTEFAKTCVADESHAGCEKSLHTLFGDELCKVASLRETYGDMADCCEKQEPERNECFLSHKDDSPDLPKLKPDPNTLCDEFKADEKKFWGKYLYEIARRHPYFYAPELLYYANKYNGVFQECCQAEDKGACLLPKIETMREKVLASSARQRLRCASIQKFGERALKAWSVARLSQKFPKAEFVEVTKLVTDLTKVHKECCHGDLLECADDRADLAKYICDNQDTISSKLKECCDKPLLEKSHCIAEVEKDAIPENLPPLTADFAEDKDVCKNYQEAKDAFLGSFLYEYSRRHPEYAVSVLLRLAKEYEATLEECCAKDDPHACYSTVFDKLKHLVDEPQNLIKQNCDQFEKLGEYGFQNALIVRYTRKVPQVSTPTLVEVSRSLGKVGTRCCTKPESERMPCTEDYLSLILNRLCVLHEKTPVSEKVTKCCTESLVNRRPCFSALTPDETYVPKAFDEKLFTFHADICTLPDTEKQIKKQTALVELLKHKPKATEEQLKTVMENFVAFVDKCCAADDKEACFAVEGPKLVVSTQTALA
T4 sequence (P0C024 14-235): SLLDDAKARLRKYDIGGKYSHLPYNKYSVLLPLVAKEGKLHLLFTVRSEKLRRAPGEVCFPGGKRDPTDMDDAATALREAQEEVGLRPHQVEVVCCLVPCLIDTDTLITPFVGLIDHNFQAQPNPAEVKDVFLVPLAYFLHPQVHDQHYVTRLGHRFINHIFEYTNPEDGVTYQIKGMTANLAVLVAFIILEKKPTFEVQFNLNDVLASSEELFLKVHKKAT

Row | SMILES | viability at 48 h, 10 µM (in vitro [1]) [%] | BSA (BSA) | OTUB2 (OTUB2 (OTUB2A)) | PCAF (PCAF) | NUDT7 (NUDT7) | viability at 48 h, 10 µM (in vitro [2]) [%] | viability at 48 h, 10 µM (in vitro [3]) [%]
1 | N#CSc1ccc(NC(=O)CCl)c(F)c1 [PCM-0102548] | 55.2 | 0 | 0.09 | 0 | 0 | 19.2 | 26.5
2 | C=CC(=O)N1CCCc2ccccc21 [PCM-0102549] | 111 | 0 | 0 | 0 | 0 | 111 | 109
3 | O=C(CCl)N=c1sccn1Cc1ccccc1Cl [PCM-0102550] | 6 | 0 | 0 | 0 | 0.11 | 27.2 | 3.8
4 | C=CC(=O)Nc1ccc(N2CCOCC2)cc1 [PCM-0102551] | 82.5 | 0 | 0 | 0 | 0 | 99.9 | 113
5 | Cc1ccc(CN(C)C(=O)CCl)c(C)c1 [PCM-0102552] | 62.6 | 0 | 0 | 0 | 0.19 | 54.5 | 69.9
6 | CC(C)(O)CNC(=O)CCl [PCM-0102554] | 93.2 | 0 | 0 | 0 | 0 | 103 | 99.5
7 | C=CC(=O)N1CCC(n2cccn2)CC1 [PCM-0102555] | 109 | 0 | 0 | 0 | 0 | 102 | 104
8 | CC(c1ccc(Cl)cc1)N(C)C(=O)CCl (stereo not drawn) [PCM-0102556] | 3.1 | 0 | 0 | 0 | 0.39 | 4.9 | 11.5
9 | C=CC(=O)NCc1cnn2ccccc12 [PCM-0102561] | 95.2 | 0 | 0 | 0 | 0 | 108 | 124
10 | C=CC(=O)NC1CC(C)(C)OC1(C)C (stereo not drawn) [PCM-0102562] | 94.8 | 0 | 0 | 0 | 0 | 107 | 114
11 | C=CC(=O)NC1CCC2(CC1)OCCO2 [PCM-0102564] | 75.1 | 0 | 0 | 0 | 0 | 109 | 132
12 | C=CC(=O)N1CCCN(Cc2cn3cc(Cl)ccc3n2)CC1 [PCM-0102565] | 105 | 0 | 0 | 0 | 0.18 | 106 | 104
13 | C=CC(=O)NC1CCc2nc(-c3cc(F)ccc3F)cn2C1 (stereo not drawn) [PCM-0102566] | 78 | 0 | 0 | 0 | 0 | 97.4 | 106
14 | C=CC(=O)NC1CCC(N2CCCS2(=O)=O)CC1 (stereo not drawn) [PCM-0102568] | 78 | 0 | 0 | 0 | 0 | 107 | 93.8
15 | CC(NC(=O)CCl)C1CC2CCC1C2 (stereo not drawn) [PCM-0102572] | 80.7 | 0 | 0 | 0 | 0 | 92 | 91.1
